Each structure is given as a SMILES string.

Results on 7 compounds are retold here after patent US20240376144A9, “NEUROACTIVE STEROIDS S[…] POSITION 10 WITH A CYCLIC GROUP FOR USE IN THE TREATMENT OF CNS DISORDERS” (Sage Therapeutics, Inc., priority 2018, published 2024).

The assay addresses GABAA receptor ([35S]-TBPS binding, rat brain cortical membranes). Description: Steroid inhibition of [35S]-TBPS binding. The settings on record: 3 nM [35S]-TBPS, in the presence of 5 mM GABA. The protocol:
[^35S]-t-Butylbicyclophosphorothionate (TBPS) binding assays using rat brain cortical membranes in the presence of 5 mM GABA has been described (Gee et al., J. Pharmacol. Exp. Ther. 1987, 241, 346-353; Hawkinson et al., Mol. Pharmacol. 1994, 46, 977-985; Lewin, A. H et al., Mol. Pharmacol. 1989, 35, 189-194).
Briefly, cortices are rapidly removed following decapitation of carbon dioxide-anesthetized Sprague-Dawley rats (200-250 g). The cortices are homogenized in 10 volumes of ice-cold 0.32 M sucrose using a glass/teflon homogenizer and centrifuged at 1500×g for 10 min at 4° C. The resultant supernatants are centrifuged at 10,000×g for 20 min at 4° C. to obtain the P2 pellets. The P2 pellets are resuspended in 200 mM NaCl/50 mM Na—K phosphate pH 7.4 buffer and centrifuged at 10,000×g for 10 min at 4° C. This washing procedure is repeated twice and the pellets are resuspended in 10 volumes of buffer. Aliquots ([…]) of the membrane suspensions are incubated with 3 nM [^35S]-TBPS and […] aliquots of test drug dissolved in dimethyl sulfoxide (DMSO) (final 0.5%) in the presence of 5 mM GABA. The incubation is brought to a final volume of 1.0 mL with buffer. Nonspecific binding is determined in the presence of […] and ranged from 15 to 25%. Following a 90 min incubation at room temp, the assays are terminated by filtration through glass fiber filters (Schleicher and Schuell No. 32) using a cell harvester (Brandel) and rinsed three times with ice-cold buffer. Filter bound radioactivity is measured by liquid scintillation spectrometry. Non-linear curve fitting of the overall data for each drug averaged for each concentration is done using Prism (GraphPad). […] The concentration of test compound producing 50% inhibition (IC50) of specific binding and the maximal extent of inhibition (Imax) are determined for the individual experiments with the same model used for the overall data and then the means±SEM.s of the individual experiments are calculated.
Various compounds are or can be screened to determine their potential as modulators of [^35S]-TBPS binding in vitro. These assays are or can be performed in accordance with the above
In Table 2 below, A indicates a TBPS IC50 (μM)<0.1 μM, B indicates a TBPS IC50 (μM) of 0.1 μM to <1.0 μM, C indicates a TBPS IC50 (μM) of 1 μM to <10.0 μM, D means≥10 μM.
For `CC(=O)[C@H]1CC[C@H]2[C@@H]3CC[C@@H]4C[C@](C)(O)CC[C@]4(C4CC4)[C@H]3CC[C@]12C` [Compound A9, 1-((3R,5R,8S,9S,10R,13S,14S,17S)-10-cyclopropyl-3-hydroxy-3,13-dimethylhexadecahydro-1H-cyclopenta[a]phenanthren-17-yl)ethan-1-one], the IC50 was less than 100 nM.
With `CCOC[C@@]1(O)CC[C@@]2(C3CC3)[C@H](CC[C@H]3[C@@H]4CC[C@H](C(=O)Cn5cc(C#N)cn5)[C@@]4(C)CC[C@@H]32)C1` [Compound 5.2, 1-(2-((3R,5R,8S,9S,10R,13S,14S,17S)-10-cyclopropyl-3-(ethoxymethyl)-3-hydroxy-13-methylhexadecahydro-1H-cyclopenta[a]phenanthren-17-yl)-2-oxoethyl)-1H-pyrazole-4-carbonitrile], the IC50 was less than 100 nM.
With `CCOC[C@@]1(O)CC[C@@]2(C3CC3)[C@H](CC[C@H]3[C@@H]4CC[C@H](C(C)=O)[C@@]4(C)CC[C@@H]32)C1` [Compound 4.12, 1-((3R,5R,8S,9S,10R,13S,14S,17S)-10-cyclopropyl-3-(ethoxymethyl)-3-hydroxy-13-methylhexadecahydro-1H-cyclopenta[a]phenanthren-17-yl)ethan-1-one] the figure was less than 100 nM; with `C[C@@]1(O)CC[C@@]2(C3CC3)[C@H](CC[C@H]3[C@@H]4CC[C@H](C(=O)Cn5cc(C#N)cn5)[C@@]4(C)CC[C@@H]32)C1` [Compound A11, 1-(2-((3R,5R,8S,9S,10R,13S,14S,17S)-10-cyclopropyl-3-hydroxy-3,13-dimethylhexadecahydro-1H-cyclopenta[a]phenanthren-17-yl)-2-oxoethyl)-1H-pyrazole-4-carbonitrile], less than 100 nM; with `COC[C@@]1(O)CC[C@@]2(C3CC3)[C@H](CC[C@H]3[C@@H]4CC[C@H](C(C)=O)[C@@]4(C)CC[C@@H]32)C1` [Compound 7.4, 1-((3R,5R,8S,9S,10R,13S,14S,17S)-10-cyclopropyl-3-hydroxy-3-(methoxymethyl)-13-methylhexadecahydro-1H-cyclopenta[a]phenanthren-17-yl)ethan-1-one], less than 100 nM.
With `CCOC[C@@]1(O)CC[C@@]2(C3CC3)[C@H](CC[C@H]3[C@@H]4CC[C@H](C(=O)Cn5ccc(C#N)n5)[C@@]4(C)CC[C@@H]32)C1` [Compound 6, 1-(2-((3R,5R,8S,9S,10R,13S,14S,17S)-10-cyclopropyl-3-(ethoxymethyl)-3-hydroxy-13-methylhexadecahydro-1H-cyclopenta[a]phenanthren-17-yl)-2-oxoethyl)-1H-pyrazole-3-carbonitrile] the figure was less than 100 nM; with `COC[C@@]1(O)CC[C@@]2(C3CC3)[C@H](CC[C@H]3[C@@H]4CC[C@H](C(=O)Cn5cc(C#N)cn5)[C@@]4(C)CC[C@@H]32)C1` [Compound 8.2b, 1-(2-((3R,5R,8S,9S,10R,13S,14S,17S)-10-cyclopropyl-3-hydroxy-3-(methoxymethyl)-13-methylhexadecahydro-1H-cyclopenta[a]phenanthren-17-yl)-2-oxoethyl)-1H-pyrazole-4-carbonitrile], less than 100 nM.
